Results on two compounds are retold here after patent US5700808A, “5- or 6-substituted β-carboline-3-carboxylic acid esters” (Schering Aktiengesellschaft, priority 1986, dated 1997).

The term TD50 denotes the dose at which the toxic effect under study appears in half of the subjects. Low readings indicate greater toxicity, high ones lower toxicity. Broadly, the bioavailability is the share of a dose that reaches the circulation, judged against a reference dose that is usually intravenous. Lower therefore signals little systemic uptake.

One data set deals with benzodiazepine receptor. Put plainly: in vivo binding test (reduction of specific flunitrazepam binding in a living brain). The conditions noted are these: dose reducing specific binding of flunitrazepam to the benzodiazepine receptor in a living brain to 50% of the control value. The text has this:
The ED50 in vivo value represents the dose of a test compound effecting a reduction in specific binding of flunitrazepam to the benzodiazepine receptor in a living brain to 50% of the control value.

A short description of data set [1]: chimney test (motor discoordination). The data set is classed as in vivo. The conditions noted are these: ip, higher ED50 is better, as it indicates lower activity in inducing motor discoordination. The procedure:
The chimney test was performed according to the method of Poissier, Jr., et al. Med. Exp. 3: 81-84 (1960). The higher the ED50 value in the chimney test the better, since this indicates a lower activity in inducing motor discoordination.

A short description of the next data set: bioavailability in rats. The conditions noted are these: rat, in vivo.

Some results are limits rather than exact numbers.

As to `CCOC(=O)c1ncc2[nH]c3ccc(OCc4ccccc4)cc3c2c1COC` [A, 6-benzyloxy-4-methoxymethyl-beta-carboline-3-carboxylic acid ethyl ester], in the data set on benzodiazepine receptor, the “ED50 mg/kg in vivo” value is 5.6 mg/kg. Also, in data set [1], the TD50 came to 12.1 mg/kg. This compound registered a bioavailability in the data set “bioavailability in rats” of 17%.
Take `COCc1c(C(=O)OC(C)C)ncc2[nH]c3ccc(OCc4ccccc4)cc3c12` [B, 6-benzyloxy-4-methoxymethyl-beta-carboline-3-carboxylic acid ispropyl ester]: the “ED50 mg/kg in vivo” value in the data set on benzodiazepine receptor is reported as 0.4 mg/kg. In data set [1], this compound gave a TD50 of over 50 mg/kg. The bioavailability in the data set “bioavailability in rats” amounted to 32%.
